Patent US5350866A, “10-desacetoxytaxol derivatives” (Bristol-Myers Squibb Company, priority 1992, dated 1994)

Tests used:
[1] = tested on: HCT-116 human colon carcinoma cells; experiment: In vitro cytotoxicity (XTT assay), HCT-116; conditions: HCT-116, 72 h, read-out: IC50 HCT-116
[2] = tested on: HCT-116/VM46 human colon carcinoma cells; experiment: In vitro cytotoxicity (XTT assay), teniposide-resistant, multidrug resistance phenotype HCT-116/VM46

Row | Structure (SMILES) | IC50 [1] [nM] | IC50 ([2]; Homo sapiens, HCT-116/VM46, 72 h, read-out: IC50 HCT-116/VM46) [nM] | fold resistance relative to HCT116 cells ([2]; value in parenthesis, HCT-116/VM46 relative to HCT116 cells, 4320 min)
1 | CC(=O)O[C@@]12CO[C@@H]1C[C@H](O)[C@@]1(C)C(=O)CC3=C(C)[C@@H](OC(=O)[C@H](O)[C@@H](NC(=O)c4ccccc4)c4ccccc4)C[C@@](O)([C@@H](OC(=O)c4ccccc4)[C@H]21)C3(C)C [10-Desacetoxytaxol] | 8 | – | –
2 | CC(=O)O[C@H]1C(=O)[C@@]2(C)[C@H]([C@H](OC(=O)c3ccccc3)[C@]3(O)C[C@H](OC(=O)[C@H](O)[C@@H](NC(=O)c4ccccc4)c4ccccc4)C(C)=C1C3(C)C)[C@]1(OC(C)=O)CO[C@@H]1C[C@@H]2O [Taxol] | 4 | 440 | 124
